# Experimental data from ChEMBL document CHEMBL1201862, “PubChem BioAssay data set” (2004).
# Active and inactive are the calls of the source. Unless noted, no cut-off for these calls is given here.
# Tests used:
# Candida albicans = test: fluconazole resistance reversal in C. albicans, dose response, CaCi-2 strain, Alamar Blue, dry powder, set 4 (AID 488943); assay type: functional, organism-based
# [1] = molecular target: Intestinal-type alkaline phosphatase (Mus musculus, UniProt P24822); test: PubChem AID 488874; assay type: functional
# Chain of Intestinal-type alkaline phosphatase (Mus musculus, UniProt P24822) (P24822 whole entry): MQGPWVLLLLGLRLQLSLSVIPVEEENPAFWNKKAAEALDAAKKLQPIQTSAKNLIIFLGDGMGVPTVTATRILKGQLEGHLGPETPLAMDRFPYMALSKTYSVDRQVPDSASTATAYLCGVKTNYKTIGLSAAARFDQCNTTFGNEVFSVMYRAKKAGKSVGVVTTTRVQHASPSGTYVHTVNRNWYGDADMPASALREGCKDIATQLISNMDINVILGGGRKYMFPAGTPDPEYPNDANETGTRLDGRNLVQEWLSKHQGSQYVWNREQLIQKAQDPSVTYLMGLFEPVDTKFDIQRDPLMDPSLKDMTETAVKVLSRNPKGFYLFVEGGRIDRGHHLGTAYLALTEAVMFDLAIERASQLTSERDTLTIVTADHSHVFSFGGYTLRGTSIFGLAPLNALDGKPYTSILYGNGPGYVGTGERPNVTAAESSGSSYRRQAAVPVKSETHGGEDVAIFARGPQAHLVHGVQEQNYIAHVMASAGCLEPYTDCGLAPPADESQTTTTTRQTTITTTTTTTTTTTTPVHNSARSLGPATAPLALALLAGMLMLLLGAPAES
# [2] = molecular target: T1, Intestinal-type alkaline phosphatase (Homo sapiens, UniProt P09923); test: human intestinal alkaline phosphatase activators, dose response, biochemical, luminescence, uHTS hits (AID 463120); assay type: functional
# T1 sequence (P09923 whole entry): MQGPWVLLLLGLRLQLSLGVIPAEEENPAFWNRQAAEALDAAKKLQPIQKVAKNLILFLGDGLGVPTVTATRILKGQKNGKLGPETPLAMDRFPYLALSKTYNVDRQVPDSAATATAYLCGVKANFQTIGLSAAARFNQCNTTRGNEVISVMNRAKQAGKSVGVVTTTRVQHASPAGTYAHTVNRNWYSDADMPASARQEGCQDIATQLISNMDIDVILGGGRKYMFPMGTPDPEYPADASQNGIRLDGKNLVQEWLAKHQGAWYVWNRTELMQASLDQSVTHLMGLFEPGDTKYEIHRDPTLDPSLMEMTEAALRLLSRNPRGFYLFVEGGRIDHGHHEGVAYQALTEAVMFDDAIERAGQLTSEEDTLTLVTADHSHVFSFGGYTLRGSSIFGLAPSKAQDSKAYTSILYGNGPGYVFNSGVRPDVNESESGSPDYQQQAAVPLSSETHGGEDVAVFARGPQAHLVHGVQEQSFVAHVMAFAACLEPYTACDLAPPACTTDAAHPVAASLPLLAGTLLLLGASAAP
# [3] = molecular target: T2, Alkaline phosphatase, tissue-nonspecific isozyme (Homo sapiens, UniProt P05186); test: TNAP enzyme activators, dose response, selectivity assay for human IAP activator project, biochemical, TNAP isozyme, human IAP uHTS hits (AID 488886); assay type: functional;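 note: potency of compounds raising TNAP activity as a selectivity check on IAP activators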
# T2 sequence (P05186 whole entry): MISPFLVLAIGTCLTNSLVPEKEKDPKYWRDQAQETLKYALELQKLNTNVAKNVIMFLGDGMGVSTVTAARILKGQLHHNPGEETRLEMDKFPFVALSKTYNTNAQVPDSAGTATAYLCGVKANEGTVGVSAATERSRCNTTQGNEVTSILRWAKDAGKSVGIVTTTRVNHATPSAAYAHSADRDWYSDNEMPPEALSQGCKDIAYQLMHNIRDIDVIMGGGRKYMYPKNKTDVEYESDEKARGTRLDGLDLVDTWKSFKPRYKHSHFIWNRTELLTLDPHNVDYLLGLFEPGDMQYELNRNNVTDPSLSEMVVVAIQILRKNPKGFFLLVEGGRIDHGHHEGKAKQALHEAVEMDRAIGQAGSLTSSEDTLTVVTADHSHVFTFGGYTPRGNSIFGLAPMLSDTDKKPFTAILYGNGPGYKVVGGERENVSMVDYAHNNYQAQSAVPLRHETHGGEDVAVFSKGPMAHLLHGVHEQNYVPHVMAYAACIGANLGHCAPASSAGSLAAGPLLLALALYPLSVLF
# [4] = molecular target: T1, Intestinal-type alkaline phosphatase; test: human IAP activators, dose response, biochemical, luminescent, uHTS hits, set 2 (AID 488817); assay type: functional;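 note: potency of activators that raise enzyme activity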
# SUMO E1/E2 = SUMO E1/E2 (Homo sapiens, UniProt P63279+Q9UBE0+Q9UBT2); test: SAR analysis of SUMOylation using HTRF in an in-Vitro dose response assay. [Related pubchem assays (depositor defined):AID2006, AID2011, AID2018, AID2069, AID2658]; assay type: functional
# Chain of SUMO E1/E2 (Q9UBE0 whole entry): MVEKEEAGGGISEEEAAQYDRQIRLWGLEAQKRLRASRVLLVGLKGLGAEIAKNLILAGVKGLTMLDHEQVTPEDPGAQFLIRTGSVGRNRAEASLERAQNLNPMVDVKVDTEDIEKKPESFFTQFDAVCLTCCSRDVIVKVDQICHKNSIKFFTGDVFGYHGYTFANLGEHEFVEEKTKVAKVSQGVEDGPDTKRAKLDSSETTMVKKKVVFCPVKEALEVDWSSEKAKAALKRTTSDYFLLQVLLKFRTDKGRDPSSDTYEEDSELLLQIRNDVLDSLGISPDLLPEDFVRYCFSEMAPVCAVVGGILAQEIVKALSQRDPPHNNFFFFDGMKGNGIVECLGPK
# Chain of SUMO E1/E2 (Q9UBT2 whole entry): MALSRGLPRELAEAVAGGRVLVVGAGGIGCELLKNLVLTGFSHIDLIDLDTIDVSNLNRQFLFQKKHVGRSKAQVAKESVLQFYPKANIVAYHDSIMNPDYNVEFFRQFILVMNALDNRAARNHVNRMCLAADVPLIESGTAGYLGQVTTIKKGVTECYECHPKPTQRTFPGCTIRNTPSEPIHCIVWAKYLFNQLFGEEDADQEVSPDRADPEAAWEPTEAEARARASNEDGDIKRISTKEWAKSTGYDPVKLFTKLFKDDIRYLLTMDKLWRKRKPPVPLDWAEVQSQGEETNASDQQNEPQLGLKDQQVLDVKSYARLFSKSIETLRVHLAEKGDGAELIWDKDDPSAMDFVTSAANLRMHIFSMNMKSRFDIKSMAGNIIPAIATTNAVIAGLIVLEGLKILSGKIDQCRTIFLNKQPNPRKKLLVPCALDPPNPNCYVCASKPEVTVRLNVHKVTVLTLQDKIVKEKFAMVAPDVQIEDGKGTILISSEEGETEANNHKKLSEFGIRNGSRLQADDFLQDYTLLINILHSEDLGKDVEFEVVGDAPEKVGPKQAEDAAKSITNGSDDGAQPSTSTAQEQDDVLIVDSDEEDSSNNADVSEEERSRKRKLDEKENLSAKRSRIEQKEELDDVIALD
# Chain of SUMO E1/E2 (P63279 whole entry): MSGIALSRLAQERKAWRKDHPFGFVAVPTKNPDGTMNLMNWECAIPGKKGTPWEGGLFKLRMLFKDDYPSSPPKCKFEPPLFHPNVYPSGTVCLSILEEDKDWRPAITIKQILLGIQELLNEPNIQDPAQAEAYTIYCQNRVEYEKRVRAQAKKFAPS
# Cytochrome P450 3A4 = Cytochrome P450 3A4 (Homo sapiens, UniProt P08684);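 note: CYP3A4 tested as one member of a cytochrome P450 panel screen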
# Chain of Cytochrome P450 3A4 (P08684 whole entry): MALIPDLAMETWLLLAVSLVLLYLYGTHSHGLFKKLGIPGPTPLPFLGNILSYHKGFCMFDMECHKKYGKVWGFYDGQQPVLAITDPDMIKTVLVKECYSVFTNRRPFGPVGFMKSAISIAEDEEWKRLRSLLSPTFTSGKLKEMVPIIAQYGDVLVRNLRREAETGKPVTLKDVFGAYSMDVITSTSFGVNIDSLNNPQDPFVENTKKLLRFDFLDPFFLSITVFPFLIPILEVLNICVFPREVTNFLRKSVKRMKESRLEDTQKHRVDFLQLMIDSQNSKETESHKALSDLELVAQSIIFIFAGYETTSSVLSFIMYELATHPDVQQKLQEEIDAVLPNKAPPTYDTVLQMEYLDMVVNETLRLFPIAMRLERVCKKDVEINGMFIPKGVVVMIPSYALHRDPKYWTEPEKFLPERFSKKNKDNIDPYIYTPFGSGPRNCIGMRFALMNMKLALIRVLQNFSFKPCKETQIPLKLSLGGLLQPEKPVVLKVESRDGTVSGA
# [5] = M. tuberculosis growth inhibition, HTS (AID 449762); assay type: functional
# [6] = microbe, parasite or virus in culture; assay type: functional; conditions: Mycobacterium tuberculosis
# [7] = molecular target: T3, Delta-type opioid receptor (Homo sapiens, UniProt P41143); test: SAR Analysis of Antagonists of the DOR Receptor using an Image-Based Assay - Set 2. [Related pubchem assays (depositor defined):AID1777, AID1785, AID1786, AID1966, AID2133, AID2136, AID2284, AID2285, AID2357]; assay type: functional
# T3 sequence (P41143 whole entry): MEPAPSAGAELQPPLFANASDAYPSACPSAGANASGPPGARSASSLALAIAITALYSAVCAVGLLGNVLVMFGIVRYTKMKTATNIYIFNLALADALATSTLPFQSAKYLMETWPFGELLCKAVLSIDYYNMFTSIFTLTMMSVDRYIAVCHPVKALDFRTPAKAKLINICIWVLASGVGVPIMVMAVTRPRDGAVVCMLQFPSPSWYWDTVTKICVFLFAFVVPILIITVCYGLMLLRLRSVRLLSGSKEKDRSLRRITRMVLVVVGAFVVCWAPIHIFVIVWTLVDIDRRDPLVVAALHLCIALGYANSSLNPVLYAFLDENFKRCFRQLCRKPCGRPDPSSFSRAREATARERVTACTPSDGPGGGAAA
# Mu-type opioid receptor [8] = molecular target: T4, Mu-type opioid receptor (Homo sapiens, UniProt P35372); test: SAR Analysis of Agonists of the MOR Receptor using an Image-Based Assay - Set 2. [Related pubchem assays (depositor defined):AID1777, AID1785, AID1786, AID1966, AID2133, AID2136, AID2284, AID2285, AID2352]; assay type: functional
# T4 sequence (P35372 whole entry): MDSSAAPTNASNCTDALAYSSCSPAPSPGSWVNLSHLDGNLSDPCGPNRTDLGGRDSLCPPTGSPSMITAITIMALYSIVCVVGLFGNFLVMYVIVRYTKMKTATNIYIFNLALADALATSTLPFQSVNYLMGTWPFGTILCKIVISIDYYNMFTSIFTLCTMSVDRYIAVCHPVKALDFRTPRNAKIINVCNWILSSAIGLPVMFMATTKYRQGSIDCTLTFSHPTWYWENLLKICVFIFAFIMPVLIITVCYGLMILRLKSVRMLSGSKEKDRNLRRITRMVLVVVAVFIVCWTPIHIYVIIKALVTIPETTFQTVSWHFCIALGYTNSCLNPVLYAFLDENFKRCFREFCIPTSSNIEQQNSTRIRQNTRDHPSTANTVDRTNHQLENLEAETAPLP
# [9] = molecular target: T5, Kappa-type opioid receptor (Homo sapiens, UniProt P41145); test: SAR analysis of Antagonists of the Kappa Opioid Receptor (KOR) using an Image-Based Assay - Set 2. [Related pubchem assays (depositor defined):AID1777, AID1785, AID1786, AID1966, AID2133, AID2136, AID2284, AID2285, AID2348]; assay type: functional
# T5 sequence (P41145 whole entry): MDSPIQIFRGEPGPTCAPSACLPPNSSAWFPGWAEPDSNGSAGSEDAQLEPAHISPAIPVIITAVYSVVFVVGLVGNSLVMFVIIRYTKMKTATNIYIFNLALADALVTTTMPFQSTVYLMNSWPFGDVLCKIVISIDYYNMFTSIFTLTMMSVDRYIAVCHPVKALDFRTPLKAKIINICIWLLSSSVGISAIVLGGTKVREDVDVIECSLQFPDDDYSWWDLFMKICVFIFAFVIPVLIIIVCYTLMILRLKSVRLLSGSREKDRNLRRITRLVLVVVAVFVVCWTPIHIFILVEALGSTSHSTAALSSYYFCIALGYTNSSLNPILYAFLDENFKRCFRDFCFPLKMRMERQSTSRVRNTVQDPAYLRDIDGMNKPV
# Mu-type opioid receptor [10] = molecular target: T4, Mu-type opioid receptor; test: SAR Analysis of Antagonists of the MOR Receptor using an Image-Based Assay - Set 2. [Related pubchem assays (depositor defined):AID1777, AID1785, AID1786, AID1966, AID2133, AID2136, AID2284, AID2285, AID2420]; assay type: functional
# [11] = molecular target: T5, Kappa-type opioid receptor; test: SAR analysis of small molecule agonists of the kappa opioid receptor via a luminescent beta-arrestin assay - Set 2. [Related pubchem assays (depositor defined):AID1777, AID1785, AID1786, AID1966, AID2133, AID2136, AID2284, AID449737]; assay type: functional
# [12] = molecular target: T5, Kappa-type opioid receptor; test: SAR analysis of Agonists of the Kappa Opioid Receptor (KOR) using an Image-Based Assay - Set 2. [Related pubchem assays (depositor defined):AID1777, AID1786, AID1966, AID2133, AID2136, AID2284, AID2285, AID2359]; assay type: functional
# [13] = molecular target: T3, Delta-type opioid receptor; test: SAR Analysis of Agonists of the DOR Receptor using an Image-Based Assay - Set 2. [Related pubchem assays (depositor defined):AID1777, AID1785, AID1786, AID1966, AID2133, AID2136, AID2284, AID2285, AID2370]; assay type: functional
# Hexokinase-1 = molecular target: T6, Hexokinase-1 (Homo sapiens, UniProt P19367); test: hexokinase 1 activators, dose response, selectivity assay for HKDC1 activator project, biochemical (AID 504762); assay type: functional
# T6 sequence (P19367 whole entry): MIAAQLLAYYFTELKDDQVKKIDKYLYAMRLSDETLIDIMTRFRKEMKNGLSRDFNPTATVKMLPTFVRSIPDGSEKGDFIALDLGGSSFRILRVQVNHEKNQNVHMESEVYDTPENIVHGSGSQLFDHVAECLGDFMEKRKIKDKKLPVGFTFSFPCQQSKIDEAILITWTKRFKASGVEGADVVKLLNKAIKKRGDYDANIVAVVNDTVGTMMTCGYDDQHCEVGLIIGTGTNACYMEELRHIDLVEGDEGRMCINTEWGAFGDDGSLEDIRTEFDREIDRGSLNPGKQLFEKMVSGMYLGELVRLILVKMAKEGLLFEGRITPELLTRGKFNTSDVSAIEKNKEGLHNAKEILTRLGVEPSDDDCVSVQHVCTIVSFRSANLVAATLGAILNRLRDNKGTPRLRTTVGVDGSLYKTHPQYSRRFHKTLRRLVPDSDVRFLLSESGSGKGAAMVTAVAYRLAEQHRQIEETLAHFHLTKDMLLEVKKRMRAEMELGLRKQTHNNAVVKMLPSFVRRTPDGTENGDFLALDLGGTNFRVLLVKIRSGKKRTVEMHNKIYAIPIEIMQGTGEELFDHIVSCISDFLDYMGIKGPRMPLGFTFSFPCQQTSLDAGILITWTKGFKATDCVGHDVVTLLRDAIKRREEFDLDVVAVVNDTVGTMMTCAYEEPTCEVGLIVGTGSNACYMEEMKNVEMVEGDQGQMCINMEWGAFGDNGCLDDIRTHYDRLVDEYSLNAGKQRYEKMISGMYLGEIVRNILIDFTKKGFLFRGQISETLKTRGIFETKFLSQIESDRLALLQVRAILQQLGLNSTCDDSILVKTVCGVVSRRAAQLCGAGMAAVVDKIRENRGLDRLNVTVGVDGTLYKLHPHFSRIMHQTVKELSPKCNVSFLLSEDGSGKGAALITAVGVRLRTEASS
# [14] = molecular target: Lysine-specific demethylase 4C (Homo sapiens, UniProt Q9H3R0); test: GASC-1 (JMJD2C) histone demethylase inhibitors, dose response, biochemical, DELFIA europium, cherry-picked samples (AID 488835); assay type: functional
# Chain of Lysine-specific demethylase 4C (Q9H3R0 whole entry): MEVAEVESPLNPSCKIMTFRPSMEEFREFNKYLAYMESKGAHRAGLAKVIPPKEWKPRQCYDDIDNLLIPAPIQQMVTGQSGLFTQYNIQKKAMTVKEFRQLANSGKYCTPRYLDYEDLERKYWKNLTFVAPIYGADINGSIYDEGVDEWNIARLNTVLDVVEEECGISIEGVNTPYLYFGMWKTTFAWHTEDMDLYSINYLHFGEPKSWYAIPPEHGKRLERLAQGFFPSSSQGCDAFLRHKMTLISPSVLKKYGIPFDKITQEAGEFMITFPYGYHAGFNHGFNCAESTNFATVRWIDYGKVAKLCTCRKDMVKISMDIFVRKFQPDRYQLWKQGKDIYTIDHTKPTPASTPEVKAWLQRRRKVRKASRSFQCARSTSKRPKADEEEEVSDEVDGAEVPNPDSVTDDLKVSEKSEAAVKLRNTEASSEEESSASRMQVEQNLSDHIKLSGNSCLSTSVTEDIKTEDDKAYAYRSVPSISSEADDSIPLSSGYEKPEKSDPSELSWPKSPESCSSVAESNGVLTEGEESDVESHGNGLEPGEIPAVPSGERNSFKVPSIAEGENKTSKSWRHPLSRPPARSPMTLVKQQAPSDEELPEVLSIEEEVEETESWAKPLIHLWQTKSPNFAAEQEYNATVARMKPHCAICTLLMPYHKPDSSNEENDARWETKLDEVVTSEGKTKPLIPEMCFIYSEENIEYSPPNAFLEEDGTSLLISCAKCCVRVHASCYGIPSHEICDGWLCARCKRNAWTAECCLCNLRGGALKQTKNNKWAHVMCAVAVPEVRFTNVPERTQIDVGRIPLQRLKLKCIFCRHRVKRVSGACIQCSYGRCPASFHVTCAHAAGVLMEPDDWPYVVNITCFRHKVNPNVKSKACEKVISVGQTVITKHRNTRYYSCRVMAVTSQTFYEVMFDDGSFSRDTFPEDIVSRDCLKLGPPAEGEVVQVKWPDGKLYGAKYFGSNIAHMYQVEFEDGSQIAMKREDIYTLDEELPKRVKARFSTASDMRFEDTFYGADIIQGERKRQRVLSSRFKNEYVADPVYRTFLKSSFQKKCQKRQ
# Beta-galactosidase = Beta-galactosidase (Escherichia coli, UniProt Q8VNN2); test: PubChem AID 485352; assay type: functional
# [15] = molecular target: T7, Zinc finger protein mex-5 (Caenorhabditis elegans, UniProt Q9XUB2); test: MEX-5/TCR-2 RNA interaction inhibitors, dose response, biochemical, C. elegans, fluorescence polarization (AID 1960)
# T7 sequence (Q9XUB2 whole entry): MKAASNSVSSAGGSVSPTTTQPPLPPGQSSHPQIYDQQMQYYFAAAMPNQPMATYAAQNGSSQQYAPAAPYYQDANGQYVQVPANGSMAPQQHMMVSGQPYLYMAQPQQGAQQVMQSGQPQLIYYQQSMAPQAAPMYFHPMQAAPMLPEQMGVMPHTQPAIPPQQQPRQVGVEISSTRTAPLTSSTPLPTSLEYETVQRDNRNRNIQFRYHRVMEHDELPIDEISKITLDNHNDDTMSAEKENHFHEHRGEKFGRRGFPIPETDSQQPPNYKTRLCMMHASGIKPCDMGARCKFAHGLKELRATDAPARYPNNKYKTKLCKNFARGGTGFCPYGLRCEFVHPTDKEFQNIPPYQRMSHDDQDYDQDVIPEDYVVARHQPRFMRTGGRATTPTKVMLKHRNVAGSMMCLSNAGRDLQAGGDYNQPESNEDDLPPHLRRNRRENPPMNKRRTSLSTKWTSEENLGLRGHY
# [16] = molecular target: Lysine-specific demethylase 4A (Homo sapiens, UniProt O75164); test: JMJD2A histone demethylase inhibitors, dose response, selectivity assay for GASC-1 inhibitor project, biochemical, DELFIA europium, cherry-picked samples (AID 488840)
# [17] = molecular target: T8, RNA-binding protein pos-1 (Caenorhabditis elegans, UniProt G5EF15); test: inhibitors of POS-1/mex-3 RNA binding, dose response, biochemical, fluorescence polarization (AID 1964);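 note: purified POS-1 fused to maltose binding protein made in E. coli; potency of compounds blocking POS-1 binding to fluorescent RNA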
# T8 sequence (G5EF15 whole entry): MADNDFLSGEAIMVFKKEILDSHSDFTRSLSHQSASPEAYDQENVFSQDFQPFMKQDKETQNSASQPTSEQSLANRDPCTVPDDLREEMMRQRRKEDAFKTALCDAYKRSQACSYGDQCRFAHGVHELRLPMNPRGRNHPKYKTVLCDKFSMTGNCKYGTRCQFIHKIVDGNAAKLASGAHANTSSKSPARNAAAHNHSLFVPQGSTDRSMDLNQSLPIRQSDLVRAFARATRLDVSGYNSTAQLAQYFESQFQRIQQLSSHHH
# Hexokinase HKDC1 = molecular target: T9, Hexokinase HKDC1 (Homo sapiens, UniProt Q2TB90); test: HKDC1 hexokinase activators, dose response, biochemical, W721R variant (AID 504730); assay type: functional
# T9 sequence (Q2TB90 whole entry): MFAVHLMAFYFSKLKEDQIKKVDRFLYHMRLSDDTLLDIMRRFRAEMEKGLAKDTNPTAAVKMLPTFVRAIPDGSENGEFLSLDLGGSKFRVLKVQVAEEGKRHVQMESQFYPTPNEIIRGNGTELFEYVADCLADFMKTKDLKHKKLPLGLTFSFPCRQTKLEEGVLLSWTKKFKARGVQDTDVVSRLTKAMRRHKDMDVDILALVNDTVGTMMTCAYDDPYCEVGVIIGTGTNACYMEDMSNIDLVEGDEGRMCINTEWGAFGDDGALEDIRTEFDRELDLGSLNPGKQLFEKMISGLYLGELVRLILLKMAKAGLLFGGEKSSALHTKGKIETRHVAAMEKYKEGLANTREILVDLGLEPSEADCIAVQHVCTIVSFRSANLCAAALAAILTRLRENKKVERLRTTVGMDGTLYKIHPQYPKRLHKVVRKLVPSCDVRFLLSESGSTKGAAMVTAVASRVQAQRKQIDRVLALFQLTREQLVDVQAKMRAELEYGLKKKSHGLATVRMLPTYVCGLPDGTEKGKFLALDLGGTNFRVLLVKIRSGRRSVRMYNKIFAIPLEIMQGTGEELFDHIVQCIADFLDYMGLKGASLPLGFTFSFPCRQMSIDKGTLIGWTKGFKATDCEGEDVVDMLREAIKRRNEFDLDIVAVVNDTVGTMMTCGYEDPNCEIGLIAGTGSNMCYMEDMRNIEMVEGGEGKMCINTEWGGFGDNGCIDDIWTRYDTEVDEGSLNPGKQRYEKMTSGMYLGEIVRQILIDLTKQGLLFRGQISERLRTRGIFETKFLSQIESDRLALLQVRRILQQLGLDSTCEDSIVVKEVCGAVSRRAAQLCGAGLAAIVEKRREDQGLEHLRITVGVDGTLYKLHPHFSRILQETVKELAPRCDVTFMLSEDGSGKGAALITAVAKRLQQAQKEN
# [18] = molecular target: T10, Type-1 angiotensin II receptor (Homo sapiens, UniProt P30556); test: AT1 receptor antagonists, dose response, selectivity assay for APJ receptor antagonist project, cell-based, uHTS hits (AID 463214); assay type: functional;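 note: antagonist potency against angiotensin II stimulated AT1 response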
# T10 sequence (P30556 whole entry): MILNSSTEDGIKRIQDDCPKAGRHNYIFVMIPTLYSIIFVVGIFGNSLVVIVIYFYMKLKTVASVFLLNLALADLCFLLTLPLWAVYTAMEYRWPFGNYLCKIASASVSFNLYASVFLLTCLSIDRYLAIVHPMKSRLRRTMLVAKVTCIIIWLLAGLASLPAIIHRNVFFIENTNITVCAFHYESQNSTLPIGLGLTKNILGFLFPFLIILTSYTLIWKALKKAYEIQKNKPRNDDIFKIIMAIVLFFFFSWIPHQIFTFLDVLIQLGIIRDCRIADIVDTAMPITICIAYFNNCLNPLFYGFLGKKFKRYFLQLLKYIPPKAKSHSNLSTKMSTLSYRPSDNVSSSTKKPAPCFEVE
smiles,measurement,setting,value
Clc1ccc2c(N3CCNCC3)ccnc2c1,AC50,Candida albicans,21.7 µM (active)
O=C(Cc1ccc(Cl)c(Cl)c1)NNC(=S)NCC1CCCO1 (centres undefined),IC50,[1],49.6 µM (active)
same,EC50,[2],14.3 µM (active)
same,EC50,[3],20.2 µM (active)
same,EC50,[4],17.5 µM (active)
S=c1[nH]nc(-c2cc(-c3ccccc3)[nH]n2)n1N=Cc1ccc(Br)s1,IC50,SUMO E1/E2,11.3 µM (active)
COC(=O)C(Cc1ccc(OC(=O)c2ccc(C(F)(F)F)cc2)cc1)N1Cc2ccccc2C1=O (centres undefined),AC50,Cytochrome P450 3A4,inconclusive
same,IC50,[5],> 100 µM (active)
same,CC50,[6],37.4 µM (active)
COc1ccc(CSc2nnc(-c3ccccn3)n2Cc2cccs2)cc1,IC50,[7],> 32 µM (inactive)
same,EC50,Mu-type opioid receptor [8],> 32 µM (inactive)
same,IC50,[9],> 32 µM (inactive)
same,IC50,Mu-type opioid receptor [10],> 32 µM (inactive)
same,EC50,[11],9.61 µM (active)
same,EC50,[12],5.98 µM (active)
same,EC50,[13],> 32 µM (inactive)
CC(=O)C1=C(c2ccccc2)N(C(C)=O)n2c(C)nnc2S1,EC50,Hexokinase-1,20.8 µM (inactive)
same,AC50,[14],0.8 µM (active)
same,EC50,Beta-galactosidase,16.8 µM (active)
same,EC50,[15],10.7 µM (active)
same,AC50,[16],56.3 µM (active)
same,EC50,[17],191 µM (active)
same,EC50,Hexokinase HKDC1,26 µM (inactive)
same,IC50,[18],11.3 µM (active)
